Where a SMILES comes first, the peptide text is derived from it. [ ]: non-standard residue; d: D form. Ahx = NCCCCCC(=O)O
Experiments:
[1] = target: T1, Neuropeptide Y receptor type 1 (Homo sapiens, UniProt P25929); assay: Tested against neuropeptide Y1 receptors using SK-N-MC human neuroblastoma cells; type: cell-based
T1 sequence (P25929 whole entry): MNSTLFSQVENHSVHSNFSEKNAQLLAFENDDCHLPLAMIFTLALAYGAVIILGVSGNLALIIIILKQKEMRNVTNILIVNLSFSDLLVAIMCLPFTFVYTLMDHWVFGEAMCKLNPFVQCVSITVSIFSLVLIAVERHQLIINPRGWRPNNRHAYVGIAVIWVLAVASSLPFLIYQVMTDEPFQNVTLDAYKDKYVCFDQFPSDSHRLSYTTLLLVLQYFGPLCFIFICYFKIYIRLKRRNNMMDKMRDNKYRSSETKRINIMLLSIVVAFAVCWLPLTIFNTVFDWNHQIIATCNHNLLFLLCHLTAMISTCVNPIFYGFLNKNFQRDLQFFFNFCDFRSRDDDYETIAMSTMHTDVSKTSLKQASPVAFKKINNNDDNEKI

[2] = target: T2, Neuropeptide Y receptor type 2 (Homo sapiens, UniProt P49146); assay: Tested against neuropeptide Y2 receptors using SK-N-BE2 human neuroblastoma cells
T2 sequence (P49146 whole entry): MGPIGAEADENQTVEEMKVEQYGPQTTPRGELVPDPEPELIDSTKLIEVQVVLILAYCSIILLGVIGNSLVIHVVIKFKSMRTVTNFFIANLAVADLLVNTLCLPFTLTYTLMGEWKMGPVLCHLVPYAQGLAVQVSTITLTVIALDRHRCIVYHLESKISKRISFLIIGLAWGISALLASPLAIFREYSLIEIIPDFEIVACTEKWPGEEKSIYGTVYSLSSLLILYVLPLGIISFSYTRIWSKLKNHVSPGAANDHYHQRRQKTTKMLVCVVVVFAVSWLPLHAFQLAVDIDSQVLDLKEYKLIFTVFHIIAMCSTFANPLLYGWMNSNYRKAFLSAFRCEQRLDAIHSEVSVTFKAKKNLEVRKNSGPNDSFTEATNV

Compound | Ki ([1]; sk-n-mc) | Ki [2] | Ki [1]
CC[C@H](C)[C@H](NC(=O)[C@H](CC(C)C)NC(=O)[C@H](CC(N)=O)NC(=O)[C@@H](NC(=O)[C@H]1CNC(=O)CC[C@H](NC(=O)[C@@H](N)Cc2ccc(O)cc2)C(=O)N[C@@H](CO)C(=O)N[C@@H](CCCCN)C(=O)N2CCC[C@H]2C(=O)N[C@H](C)C(=O)N[C@@H](CCCN=C(N)N)C(=O)N[C@@H](Cc2c[nH]cn2)C(=O)N1)[C@@H](C)CC)C(=O)N[C@H](C(=O)N[C@@H](CCCN=C(N)N)C(=O)N[C@@H](CCC(N)=O)C(=O)N[C@@H](CCCN=C(N)N)C(=O)N[C@@H](Cc1ccc(O)cc1)C(N)=O)[C@@H](C)O | > 1000 nM | 0.3 nM | 
CC[C@H](C)[C@H](NC(=O)[C@H](Cc1ccc(O)cc1)NC(=O)[C@H](Cc1cnc[nH]1)NC(=O)[C@H](CCCNC(=N)N)NC(=O)[C@@H](C)NC(=O)[C@@H]1CCCN1C(=O)[C@H](CCCCN)NC(=O)[C@H](CO)NC(=O)[C@@H]1CCCN1C(=O)[C@@H](N)Cc1ccc(O)cc1)C(=O)N[C@@H](CC(N)=O)C(=O)N[C@@H](CC(C)C)C(=O)N[C@H](C(=O)N[C@H](C(=O)N[C@@H](CCCNC(=N)N)C(=O)N[C@@H](CCC(N)=O)C(=O)N[C@@H](CCCNC(=N)N)C(=O)N[C@@H](Cc1ccc(O)cc1)C(=O)O)[C@@H](C)O)[C@@H](C)CC |  | 0.9 nM | 290 nM
CC[C@H](C)[C@H](NC(=O)[C@H](CC(C)C)NC(=O)[C@H](CC(N)=O)NC(=O)[C@@H](NC(=O)[C@H]1CNC(=O)CC[C@@H](NC(=O)[C@@H](N)Cc2ccc(O)cc2)C(=O)N[C@@H](CO)C(=O)N[C@@H](CCCCN)C(=O)N2CCC[C@H]2C(=O)N[C@H](C)C(=O)N[C@@H](CCCN=C(N)N)C(=O)N[C@@H](Cc2c[nH]cn2)C(=O)N1)[C@@H](C)CC)C(=O)N[C@H](C(=O)N[C@@H](CCCN=C(N)N)C(=O)N[C@@H](CCC(N)=O)C(=O)N[C@@H](CCCN=C(N)N)C(=O)N[C@@H](Cc1ccc(O)cc1)C(N)=O)[C@@H](C)O | 230 nM | 1.1 nM | 
CC[C@H](C)[C@@H]1NC(=O)[C@H](CC(C)C)NC(=O)[C@H](CC(N)=O)NC(=O)[C@@H](NC(=O)[C@H]2CNC(=O)CC[C@H](NC(=O)[C@@H](N)Cc3ccc(O)cc3)C(=O)N[C@@H](CO)C(=O)N[C@@H](CCCCN)C(=O)N3CCC[C@H]3C(=O)N[C@H](C)C(=O)N[C@@H](CCCN=C(N)N)C(=O)N[C@@H](Cc3c[nH]cn3)C(=O)N2)CCCCNC(=O)CC[C@@H](C(=O)N[C@@H](CCCN=C(N)N)C(=O)N[C@@H](CCC(N)=O)C(=O)N[C@@H](CCCN=C(N)N)C(=O)N[C@@H](Cc2ccc(O)cc2)C(N)=O)NC1=O | > 1000 nM | 0.3 nM | 
CC[C@H](C)[C@H](NC(=O)[C@H](CC(C)C)NC(=O)[C@H](CC(N)=O)NC(=O)[C@@H](NC(=O)[C@H]1CNC(=O)CC[C@H](NC(=O)[C@@H](N)Cc2ccc(O)cc2)C(=O)N[C@@H](CO)C(=O)N[C@@H](CCCCN)C(=O)NCCCCCC(=O)N[C@@H](CCCN=C(N)N)C(=O)N[C@@H](Cc2c[nH]cn2)C(=O)N1)[C@@H](C)CC)C(=O)N[C@H](C(=O)N[C@@H](CCCN=C(N)N)C(=O)N[C@@H](CCC(N)=O)C(=O)N[C@@H](CCCN=C(N)N)C(=O)N[C@@H](Cc1ccc(O)cc1)C(N)=O)[C@@H](C)O | 220 nM | 2.3 nM | 
CC[C@H](C)[C@@H]1NC(=O)[C@H](CC(C)C)NC(=O)[C@H](CC(N)=O)NC(=O)[C@@H](NC(=O)[C@H](Cc2ccc(O)cc2)NC(=O)[C@H](Cc2cnc[nH]2)NC(=O)[C@H](CCCNC(=N)N)NC(=O)[C@@H](C)NC(=O)[C@@H]2CCCN2C(=O)[C@H](CCCCN)NC(=O)[C@H](CO)NC(=O)[C@@H]2CCCN2C(=O)[C@@H](N)Cc2ccc(O)cc2)CCCCNC(=O)CC[C@@H](C(=O)N[C@@H](CCCNC(=N)N)C(=O)N[C@@H](CCC(N)=O)C(=O)N[C@@H](CCCNC(=N)N)C(=O)N[C@@H](Cc2ccc(O)cc2)C(=O)O)NC1=O |  | 0.5 nM | > 1000 nM
CC[C@H](C)[C@H](NC(=O)[C@H](CC(C)C)NC(=O)[C@H](CC(N)=O)NC(=O)[C@@H](NC(=O)[C@H]1CNC(=O)C[C@H](NC(=O)[C@@H](N)Cc2ccc(O)cc2)C(=O)N[C@@H](CO)C(=O)N[C@@H](CCCCN)C(=O)N2CCC[C@H]2C(=O)N[C@H](C)C(=O)N[C@@H](CCCNC(=N)N)C(=O)N[C@@H](Cc2c[nH]cn2)C(=O)N1)[C@@H](C)CC)C(=O)N[C@H](C(=O)N[C@@H](CCCNC(=N)N)C(=O)N[C@@H](CCC(N)=O)C(=O)N[C@@H](CCCNC(=N)N)C(=O)N[C@@H](Cc1ccc(O)cc1)C(=O)O)[C@@H](C)O | > 1000 nM | 1.5 nM | 
CC[C@H](C)[C@H](NC(=O)[C@H](Cc1ccc(O)cc1)NC(=O)[C@H](Cc1c[nH]cn1)NC(=O)[C@H](CCCN=C(N)N)NC(=O)[C@H](CC(C)C)NC(=O)[C@H](C)NC(=O)[C@H](CO)NC(=O)[C@H](Cc1ccc(O)cc1)NC(=O)[C@H](Cc1ccc(O)cc1)NC(=O)[C@H](CCCN=C(N)N)NC(=O)[C@H](C)NC(=O)[C@H](CC(C)C)NC(=O)[C@H](CC(=O)O)NC(=O)[C@H](CCC(=O)O)NC(=O)[C@H](C)NC(=O)[C@@H]1CCCN1)C(=O)N[C@@H](CC(N)=O)C(=O)N[C@@H](CC(C)C)C(=O)N[C@H](C(=O)N[C@H](C(=O)N[C@@H](CCCN=C(N)N)C(=O)N[C@@H](CCC(N)=O)C(=O)N[C@@H](CCCN=C(N)N)C(=O)N[C@@H](Cc1ccc(O)cc1)C(=O)O)[C@@H](C)O)[C@@H](C)CC |  | 0.8 nM | 
CC[C@H](C)[C@H](NC(=O)[C@H](Cc1ccc(O)cc1)NC(=O)[C@H](Cc1cnc[nH]1)NC(=O)[C@H](CCCNC(=N)N)NC(=O)CCCCCNC(=O)[C@H](CCCCN)NC(=O)[C@H](CO)NC(=O)[C@@H]1CCCN1C(=O)[C@@H](N)Cc1ccc(O)cc1)C(=O)N[C@@H](CC(N)=O)C(=O)N[C@@H](CC(C)C)C(=O)N[C@H](C(=O)N[C@H](C(=O)N[C@@H](CCCNC(=N)N)C(=O)N[C@@H](CCC(N)=O)C(=O)N[C@@H](CCCNC(=N)N)C(=O)N[C@@H](Cc1ccc(O)cc1)C(=O)O)[C@@H](C)O)[C@@H](C)CC (H-YPSK[Ahx]RHYINLITRQRY-OH) |  | 1 nM | 261 nM
H-YPSKPGRHYINLITRQRY-OH |  | 3.1 nM | 
CC[C@H](C)[C@H](NC(=O)[C@H](CC(C)C)NC(=O)[C@H](CC(N)=O)NC(=O)[C@@H](NC(=O)[C@H]1CNC(=O)CC[C@H](NC(=O)[C@@H](N)Cc2ccc(O)cc2)C(=O)N[C@@H](CO)C(=O)N[C@@H](CCCCN)C(=O)N2CCC[C@H]2C(=O)NCC(=O)N[C@@H](CCCN=C(N)N)C(=O)N[C@@H](Cc2c[nH]cn2)C(=O)N1)[C@@H](C)CC)C(=O)N[C@H](C(=O)N[C@@H](CCCN=C(N)N)C(=O)N[C@@H](CCC(N)=O)C(=O)N[C@@H](CCCN=C(N)N)C(=O)N[C@@H](Cc1ccc(O)cc1)C(N)=O)[C@@H](C)O | 130 nM | 0.3 nM | 
CC[C@H](C)[C@H](NC(=O)[C@H](CC(C)C)NC(=O)[C@H](CC(N)=O)NC(=O)[C@@H](NC(=O)[C@H]1CCCCNC(=O)C[C@H](NC(=O)[C@@H](N)Cc2ccc(O)cc2)C(=O)N[C@@H](CO)C(=O)N[C@@H](CCCCN)C(=O)N2CCC[C@H]2C(=O)N[C@H](C)C(=O)N[C@@H](CCCNC(=N)N)C(=O)N[C@@H](Cc2cnc[nH]2)C(=O)N1)[C@@H](C)CC)C(=O)N[C@H](C(=O)N[C@@H](CCCNC(=N)N)C(=O)N[C@@H](CCC(N)=O)C(=O)N[C@@H](CCCNC(=N)N)C(=O)N[C@@H](Cc1ccc(O)cc1)C(=O)O)[C@@H](C)O |  | 0.5 nM | > 1000 nM

From ChEMBL document CHEMBL1126588 (J Med Chem, 1993)
